{"source": "paper PMC12396409", "about": "“Screening and hit evaluation of a microbial metabolite library against the pathogenic Plasmodium falciparum and Toxoplasma gondii parasites” (International Journal for Parasitology: Drugs and Drug …, 2025)", "key": {"[1]": {"test_system": "T. gondii RH strain (RH-Tub-eYFP) tachyzoites", "assay": "microbe, parasite or virus in culture", "assay_type": "cell-based, Toxoplasma gondii"}, "[2]": {"test_system": "P. falciparum 3D7 parasites", "assay": "P. falciparum growth inhibition assay, 2-cycle (120 h treatment), delayed-death screen and dose-response", "assay_type": "cell-based, Plasmodium falciparum", "settings": "for activity at 2 µg/mL: Plasmodium falciparum, 3D7"}, "[3]": {"test_system": "P. falciparum 3D7 parasites", "assay": "P. falciparum growth inhibition assay, 1-cycle (72 h treatment), SYBR DNA staining (library screen at 2 μg/mL and dose-response)", "assay_type": "cell-based, Plasmodium falciparum", "settings": "for activity at 2 µg/mL: Plasmodium falciparum, 3D7"}, "[4]": {"settings": "T. gondii RH, 72 h, library screen at 2 μg/mL, % growth, replicate 1"}, "[5]": {"settings": "T. gondii RH, 72 h, library screen at 2 μg/mL, % growth, replicate 2"}, "[6]": {"settings": "P. falciparum 3D7, 120 h, library screen at 2 μg/mL, % growth, replicate 1"}, "[7]": {"settings": "P. falciparum 3D7, 120 h, library screen at 2 μg/mL, % growth, replicate 2"}, "[8]": {"settings": "P. falciparum 3D7, 72 h, library screen at 2 μg/mL, % growth, replicate 1"}, "[9]": {"settings": "P. falciparum 3D7, 72 h, library screen at 2 μg/mL, % growth, replicate 2"}, "[10]": {"settings": "P. falciparum, 120 h, screen at 2 μg/mL, replicate 1, read-out: Pf_120h_%Growth_Rep1"}, "[11]": {"settings": "P. falciparum, 120 h, screen at 2 μg/mL, replicate 2, read-out: Pf_120h_%Growth_Rep2"}, "[12]": {"settings": "P. falciparum, 72 h, screen at 2 μg/mL, replicate 1, read-out: Pf_72h_%Growth_Rep1"}, "[13]": {"settings": "P. falciparum, 72 h, screen at 2 μg/mL, replicate 2, read-out: Pf_72h_%Growth_Rep2"}, "[14]": {"settings": "T. gondii, 72 h, screen at 2 μg/mL, replicate 1"}, "[15]": {"settings": "T. gondii, 72 h, screen at 2 μg/mL, replicate 2"}, "[16]": {"settings": "P. falciparum, 120 h, screen at 2 μg/mL, replicate 1"}, "[17]": {"settings": "P. falciparum, 120 h, screen at 2 μg/mL, replicate 2"}, "[18]": {"settings": "P. falciparum, 72 h, screen at 2 μg/mL, replicate 1"}, "[19]": {"settings": "P. falciparum, 72 h, screen at 2 μg/mL, replicate 2"}, "[20]": {"settings": "library screen at 2 μg/mL, 72 h, % growth, replicate 1"}, "[21]": {"settings": "library screen at 2 μg/mL, 72 h, % growth, replicate 2"}, "[22]": {"settings": "library screen at 2 μg/mL, 120 h, % growth, replicate 1"}, "[23]": {"settings": "library screen at 2 μg/mL, 120 h, % growth, replicate 2"}}, "note": "Like-named read-outs stand apart in the source and are kept apart here.", "data": [{"smiles": "CCCCCCCCCCCCCCCCCC(=O)N[C@H]1CCOC1=O", "note": "[BIA-O1501]", "values": [{"measurement": "Tg_72h_%Growth_Rep1", "setting": "[1]; T. gondii, 72 h, parasite screen at 2 μg/mL, % growth, replicate 1", "value": 147.08, "unit": "%"}, {"measurement": "Tg_72h_%Growth_Rep2", "setting": "[1]; T. gondii, 72 h, parasite screen at 2 μg/mL, % growth, replicate 2", "value": 83.28, "unit": "%"}, {"measurement": "Pf_120h_%Growth_Rep1", "setting": "[2]; P. falciparum 3D7, 120 h, parasite screen at 2 μg/mL, % growth, replicate 1", "value": 92.72, "unit": "%"}, {"measurement": "Pf_120h_%Growth_Rep2", "setting": "[2]; P. falciparum 3D7, 120 h, parasite screen at 2 μg/mL, % growth, replicate 2", "value": 140.11, "unit": "%"}, {"measurement": "Pf_72h_%Growth_Rep1", "setting": "[3]; P. falciparum 3D7, 72 h, parasite screen at 2 μg/mL, % growth, replicate 1", "value": 84.33, "unit": "%"}, {"measurement": "Pf_72h_%Growth_Rep2", "setting": "[3]; P. falciparum 3D7, 72 h, parasite screen at 2 μg/mL, % growth, replicate 2", "value": 54.35, "unit": "%"}]}, {"smiles": "COc1ccc(C2CC(=O)c3c(O)cc(OC4OC(COC5OC(C)C(O)C(O)C5O)C(O)C(O)C4O)cc3O2)cc1O", "note": "(stereo not drawn) [BIA-H1766]", "values": [{"measurement": "Tg_72h_%Growth_Rep1", "setting": "[1]; [4]", "value": 124.64, "unit": "%"}, {"measurement": "Tg_72h_%Growth_Rep2", "setting": "[1]; [5]", "value": 85.96, "unit": "%"}, {"measurement": "Pf_120h_%Growth_Rep1", "setting": "[2]; [6]", "value": 111.90, "unit": "%"}, {"measurement": "Pf_120h_%Growth_Rep2", "setting": "[2]; [7]", "value": 121.98, "unit": "%"}, {"measurement": "Pf_72h_%Growth_Rep1", "setting": "[3]; [8]", "value": 83.53, "unit": "%"}, {"measurement": "Pf_72h_%Growth_Rep2", "setting": "[3]; [9]", "value": 99.72, "unit": "%"}]}, {"smiles": "COc1c(C[C@@H](C)OC(=O)Oc2ccc(O)cc2)c2c3c(C[C@@H](C)OC(=O)c4ccccc4)c(OC)c(=O)c4c(O)cc(OC)c(c5c(OC)cc(O)c(c1=O)c52)c43", "note": "[Calphostin C]", "values": [{"measurement": "percent parasite growth at 2 µg/mL", "setting": "[1]; Toxoplasma gondii; T. gondii, 72 h, screen at 2 μg/mL, replicate 1; read-out: Tg_72h_%Growth_Rep1", "value": 1, "unit": "%"}, {"measurement": "percent parasite growth at 2 µg/mL", "setting": "[1]; Toxoplasma gondii; T. gondii, 72 h, screen at 2 μg/mL, replicate 2; read-out: Tg_72h_%Growth_Rep2", "value": 2.07, "unit": "%"}, {"measurement": "activity at 2 µg/mL", "setting": "[2]; [10]", "value": 17, "unit": "%"}, {"measurement": "activity at 2 µg/mL", "setting": "[2]; [11]", "value": 9.44, "unit": "%"}, {"measurement": "activity at 2 µg/mL", "setting": "[3]; [12]", "value": 13.6, "unit": "%"}, {"measurement": "activity at 2 µg/mL", "setting": "[3]; [13]", "value": 9.2, "unit": "%"}]}, {"smiles": "COC(=O)C1=COC(C)C2CN3CCc4c([nH]c5cc(OC)c(OC)cc45)C3CC12", "note": "(stereo not drawn) [BIA-I1957]", "values": [{"measurement": "Tg_72h_%Growth_Rep1", "setting": "[1]; [4]", "value": 168.01, "unit": "%"}, {"measurement": "Tg_72h_%Growth_Rep2", "setting": "[1]; [5]", "value": 105.99, "unit": "%"}, {"measurement": "Pf_120h_%Growth_Rep1", "setting": "[2]; [6]", "value": 15.82, "unit": "%"}, {"measurement": "Pf_120h_%Growth_Rep2", "setting": "[2]; [7]", "value": -7.23, "unit": "%"}, {"measurement": "Pf_72h_%Growth_Rep1", "setting": "[3]; [8]", "value": 25.00, "unit": "%"}, {"measurement": "Pf_72h_%Growth_Rep2", "setting": "[3]; [9]", "value": 24.20, "unit": "%"}]}, {"smiles": "CN(C)c1cc(NC(=O)CNC(C)(C)C)c(O)c2c1C[C@H]1C[C@H]3[C@H](N(C)C)C(O)=C(C(N)=O)C(=O)[C@@]3(O)C(O)=C1C2=O", "note": "[Tigecycline]", "values": [{"measurement": "percent parasite growth at 2 µg/mL", "setting": "[1]; Toxoplasma gondii, 72 h, T. gondii, 72 h, screen at 2 μg/mL, replicate 1; read-out: Tg_72h_%Growth_Rep1", "value": 144, "unit": "%"}, {"measurement": "percent parasite growth at 2 µg/mL", "setting": "[1]; Toxoplasma gondii, 72 h, T. gondii, 72 h, screen at 2 μg/mL, replicate 2; read-out: Tg_72h_%Growth_Rep2", "value": 97, "unit": "%"}, {"measurement": "activity at 2 µg/mL", "setting": "[2]; [10]", "value": 106, "unit": "%"}, {"measurement": "activity at 2 µg/mL", "setting": "[2]; [11]", "value": 93.4, "unit": "%"}, {"measurement": "activity at 2 µg/mL", "setting": "[3]; [12]", "value": 88.2, "unit": "%"}, {"measurement": "activity at 2 µg/mL", "setting": "[3]; [13]", "value": 87.6, "unit": "%"}]}, {"smiles": "O=C1N[C@@H](Cc2ccccc2)C(=O)N[C@H]1Cc1ccccc1", "note": "[Cyclo(L-Phe-L-Phe)]", "values": [{"measurement": "Tg_72h_%Growth_Rep1", "setting": "[1]; [14]", "value": 128.27, "unit": "%"}, {"measurement": "Tg_72h_%Growth_Rep2", "setting": "[1]; [15]", "value": 97.95, "unit": "%"}, {"measurement": "Pf_120h_%Growth_Rep1", "setting": "[2]; [16]", "value": 99.78, "unit": "%"}, {"measurement": "Pf_120h_%Growth_Rep2", "setting": "[2]; [17]", "value": 97.44, "unit": "%"}, {"measurement": "Pf_72h_%Growth_Rep1", "setting": "[3]; [18]", "value": 87.79, "unit": "%"}, {"measurement": "Pf_72h_%Growth_Rep2", "setting": "[3]; [19]", "value": 85.43, "unit": "%"}]}, {"smiles": "CO[C@@H]1[C@@H](OC(N)=O)[C@@H](O)[C@H](Oc2ccc3c(O)c(NC(=O)c4ccc(O)c(CCC(C)C)c4)c(=O)oc3c2C)OC1(C)C", "note": "[Dihydronovobiocin]", "values": [{"measurement": "Tg_72h_%Growth_Rep1", "setting": "[1]; [20]", "value": 162.91, "unit": "%"}, {"measurement": "Tg_72h_%Growth_Rep2", "setting": "[1]; [21]", "value": 101.29, "unit": "%"}, {"measurement": "Pf_120h_%Growth_Rep1", "setting": "[2]; [22]", "value": 93.97, "unit": "%"}, {"measurement": "Pf_120h_%Growth_Rep2", "setting": "[2]; [23]", "value": 91.59, "unit": "%"}, {"measurement": "Pf_72h_%Growth_Rep1", "setting": "[3]; [20]", "value": 88.16, "unit": "%"}, {"measurement": "Pf_72h_%Growth_Rep2", "setting": "[3]; [21]", "value": 85.96, "unit": "%"}]}, {"smiles": "CN[C@@H]1C[C@H]2O[C@@](C)([C@@H]1OC)n1c3ccccc3c3c4c(c5c6ccccc6n2c5c31)C(=O)N[C@H]4O", "note": "[UCN-01]", "values": [{"measurement": "Tg_72h_%Growth_Rep1", "setting": "[1]; [14]", "value": 1.44, "unit": "%"}, {"measurement": "Tg_72h_%Growth_Rep2", "setting": "[1]; [15]", "value": 1.53, "unit": "%"}, {"measurement": "Pf_120h_%Growth_Rep1", "setting": "[2]; [16]", "value": 24.61, "unit": "%"}, {"measurement": "Pf_120h_%Growth_Rep2", "setting": "[2]; [17]", "value": 12.22, "unit": "%"}, {"measurement": "Pf_72h_%Growth_Rep1", "setting": "[3]; [18]", "value": 0.68, "unit": "%"}, {"measurement": "Pf_72h_%Growth_Rep2", "setting": "[3]; [19]", "value": -0.50, "unit": "%"}]}, {"smiles": "COc1cc2c3c(c1O)-c1c(cc(O)c(OC)c1OC)CCC3N(C)CC2", "note": "(stereo not drawn) [Floramultine]", "values": [{"measurement": "Tg_72h_%Growth_Rep1", "setting": "[1]; [20]", "value": 115.84, "unit": "%"}, {"measurement": "Tg_72h_%Growth_Rep2", "setting": "[1]; [21]", "value": 93.93, "unit": "%"}, {"measurement": "Pf_120h_%Growth_Rep1", "setting": "[2]; [22]", "value": 85.60, "unit": "%"}, {"measurement": "Pf_120h_%Growth_Rep2", "setting": "[2]; [23]", "value": 101.00, "unit": "%"}, {"measurement": "Pf_72h_%Growth_Rep1", "setting": "[3]; [20]", "value": 85.55, "unit": "%"}, {"measurement": "Pf_72h_%Growth_Rep2", "setting": "[3]; [21]", "value": 120.01, "unit": "%"}]}, {"smiles": "CCCCCCCCCC(=O)N[C@H]1CCOC1=O", "note": "[Decanoyl-L-homoserine lactone]", "values": [{"measurement": "Tg_72h_%Growth_Rep1", "setting": "[1]; [14]", "value": 132.23, "unit": "%"}, {"measurement": "Tg_72h_%Growth_Rep2", "setting": "[1]; [15]", "value": 94.38, "unit": "%"}, {"measurement": "Pf_120h_%Growth_Rep1", "setting": "[2]; [16]", "value": 108.94, "unit": "%"}, {"measurement": "Pf_120h_%Growth_Rep2", "setting": "[2]; [17]", "value": 93.89, "unit": "%"}, {"measurement": "Pf_72h_%Growth_Rep1", "setting": "[3]; [18]", "value": 85.38, "unit": "%"}, {"measurement": "Pf_72h_%Growth_Rep2", "setting": "[3]; [19]", "value": 85.76, "unit": "%"}]}]}
